Measured values taken from paper PMC4818757, “Small molecule inhibitors of the Dishevelled‐CXXC5 interaction are new drug candidates for bone anabolic osteoporosis therapy” (EMBO Molecular Medicine, 2016).

Legend:
MC3T3E1 cells = assay: Relative ALP activity in MC3T3E1 cells; format: cell-based, murine; details: differentiation media, 10 M of each compound, 4 days
Excerpt: Railo et Rev: [NT] al, 2009 Fos-like antigen 1 […] et al, 2003 WNT1 inducible [NT] Railo et signaling pathway Rev: [NT] al, 2009 protein 1 (Wis p1) Activating […] transcription factor Rev: […], 4 (Atf 4) 2007 Cyclin-dependent [NT] Donovan TGFβ kinase inhibitor 1B Rev: [NT] et al, 2002 (Cdkn1b) […] membrane Rev: […], protein 1 (Emp1) 2007 8

[1] = Metabolic stability, rat liver microsomes; format: in vitro ADME
Dvl PDZ domain = biological target: T1, Dvl PDZ domain (Homo sapiens, UniProt O14640); assay: NMR titration (1H-15N-HSQC); format: binding
T1 construct: plasmid DNA encoding Dvl-1247- 341 (the Dvl PDZ domain); His-tag (TEV-cleavable) (cleaved yes); made in house; host or cells: E. coli BL21 (DE3)
T1 sequence (O14640 247-341 limits assumed): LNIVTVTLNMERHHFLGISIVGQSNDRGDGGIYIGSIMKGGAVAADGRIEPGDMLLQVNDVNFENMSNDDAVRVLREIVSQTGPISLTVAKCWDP
Description: For NMR titration, ^1H‐^15N‐heteronuclear single‐quantum coherence spectroscopy (HSQC) was performed using various molar ratios of ^15N‐labeled Dvl PDZ domain relative to the DBM peptide, KY‐02061, or KY‐02327. For the Dvl PDZ domain and DBM titration, the molar ratios of ^15N‐labeled Dvl PDZ domain to peptide ligand were 1:5, 1:10, 1:15, 1:20, and 1:25. For the Dvl PDZ domain and KY‐02061 titration, the molar ratios were 1:10, 1:20, 1:40, 1:60, and 1:80. For the Dvl PDZ domain and KY‐02327 titration, the molar ratios were 1:0, 1:5, 1:10, and 1:20. All spectra were processed using XWINNMR (Bruker Biospin Corp., Billerica, MA) and NMRpipe/NMRDraw software (Delaglio et al, 1995). Using the Sparky program, all residues in each spectrum were completely assigned, and the chemical shift perturbations were calculated using the equation ΔδAV = ((Δδ1H)^2 + (Δδ15N/5)^2)^1/2, where ΔδAV, Δδ1H, and Δδ15N are the average, proton, and ^15N chemical shift changes, respectively. The residues showing ΔδAV > 0.05 were selected as residues participating in the interaction.
Dvl PDZ domain purification
E. coli strain BL21 (DE3) was transformed with plasmid DNA encoding Dvl-1247-341 (the Dvl PDZ domain), and the cells were grown in M9 minimal medium containing 15N isotope for 17 hours at 21°C and after then 1 mM isopropyl-1-thio-β -D-thiogalactopyranoside was treated. […]

[2] = Metabolic stability, human hepatocytes; format: in vitro ADME

Structure (SMILES): CCOC(=O)c1cc2cc(O)ccc2n1CC(=O)NCCN1CCCCC1 [KY‐02327]
- Relative ALP activity (%) (MC3T3E1 cells): 227%
- Metabolic Stability (%) Rat [1]: 11.9%
- stability, fold more stable than KY‐02061 [1]: 2.3 fold
- residues of Dvl PDZ domain perturbed (chemical shift change > 0.05) (Dvl PDZ domain): one residue in βA (I250) and three residues in αB (V318, R322, and V325) of Dvl PDZ were perturbed
- stability, fold more stable than KY‐02061 [2]: 1.3 fold

Structure (SMILES): CCOC(=O)Cn1c(C(=O)OCC)cc2cc(OS(=O)(=O)c3ccc(C)cc3)ccc21 [KY‐02061]
- Relative ALP activity (%) (MC3T3E1 cells): 173%
- Metabolic Stability (%) Rat [1]: 5.1 ± 2.4%
- metabolic stability (in words) [1]: poor metabolic stability
- residues of Dvl PDZ domain perturbed (chemical shift change > 0.05) (Dvl PDZ domain): one residue in βB (S265) and three residues in αB (L321, R322, and V325) were perturbed
- Metabolic Stability (%) Human [2]: 25.2 ± 3%
- metabolic stability (in words) [2]: poor metabolic stability
